From US20230121197A1, “ANTIBODIES SPECIFICALLY BINDING THE CARBOXYMETHYLATED CATALYTIC SUBUNIT OF PROTEIN PHOSPHATASE 2A” (Medizinische Universität Wien, priority 2020, published 2023)

Experiments:
c-MYC = assay: H358 xenograft tumors, single dose DT-061 time-course: c-MYC IHC; assay type: in vivo, Balb/c nu/nu mice; conditions: single dose DT-061
[1] = mouse, in vivo, 5 mg/kg
[2] = tested on: α-carboxymethylation of PP2Ac; assay: H358 xenograft tumors, single dose DT-061 time-course: methyl-PP2Ac by IHC and western blot with 7C10-C5; assay type: in vivo, Balb/c nu/nu mice
Procedure: Next, the immunohistochemical analysis of xenograft tumors was performed. In brief, five micron sections from formalin-fixed paraffin-embedded (FFPE) specimens were deparaffinized in Histo-Clear and ethanol, exposed to 0.3% hydrogen peroxide to block endogenous peroxidase activity, and incubated for antigen retrieval with a citrate-based antigen unmasking solution (H-3300, Vector Laboratories) in a pressure cooker. Tumor sections were blocked with Mouse Ig Blocking Reagent (BMK-2202, Vector Laboratories), and incubated with anti-carboxymethyl PP2Ac specific antibody (7C10-C5) or an antibody recognizing total PP2Ac (ab106262) at 4° C. for two nights. Washes were performed in PBS. Slides were subsequently developed using secondary anti-mouse immunoglobulins/HRP (K1497, Agilent), DAB peroxidase substrate as the chromagen, and hematoxylin for counterstaining nuclei. Slides were sealed, and randomized for subsequent blinded review. Two independent researchers scored the level of carboxymethylated PP2Ac staining (with 7C10-C5) in one section per tumor (min. 6 tumors per treatment/control group). […] Scores from 0-2 are considered low staining, 2-4 as moderate, and 4-6 as high intensity staining. Based on these scores the data was plotted as the percentage of slides from each time point that fell into each group (FIG. 14I).

[3] = tested on: LNCaP LCMT1 knockdown lines; assay: Colony formation and cell viability (cell titer glo) in LCMT1 knockdown prostate cancer cells; assay type: cell-based, human; conditions: colony formation (20 uM, 10-12 days) and cell viability (96 hours)

SMILES | return of c-MYC to basal levels (c-MYC) | c-MYC in xenograft tumors after treatment (c-MYC; IHC) | half-life obtained from serum [1] | return of α-carboxymethylated PP2Ac to basal levels post treatment ([2]; single dose DT-061) | α-carboxymethylated PP2Ac in xenograft tumors after treatment ([2]; single dose DT-061 (5 mg/kg), IHC with 7C10-C5) | effect of LCMT1 knockdown on response to enzalutamide [3]
O=S(=O)(N[C@@H]1CCC[C@H](N2c3ccccc3Oc3ccccc32)[C@H]1O)c1ccc(OC(F)(F)F)cc1 [DT-061] | ≤ 6 h | significant decrease of c-MYC at early time points (one, two, and three hours) | 6.3 h | ≤ 12 h | increase in α-carboxymethylated PP2Ac at early time points (one, two, and three hours) | 
CNC(=O)c1ccc(N2C(=S)N(c3ccc(C#N)c(C(F)(F)F)c3)C(=O)C2(C)C)cc1F [enzalutamide] |  |  |  |  |  | decreased sensitivity
